# Where “and” joins values, the source holds several entries; their conditions need not be identical. Identical values can stand only once.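 Method: 48-hour compound exposure of cells in 96-well plates, five concentrations, linear interpolation of endpoints. The concentration for 50% growth inhibition is given as GI50. TGI: concentration producing complete growth inhibition.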
# Columns and labels:
# Test in all cases: NCI tumour cell line growth inhibition, 48 h
# [1] = tested on: 786-0 renal
# [2] = tested on: BT-549 breast
# [3] = tested on: CAKI-1 renal
# [4] = tested on: HL-60(TB) leukemia
# [5] = tested on: HOP-92 NSCLC
# [6] = tested on: HS 578T breast
# [7] = tested on: IGROV1 ovarian
# [8] = tested on: MDA-MB-231 breast
# [9] = tested on: NCI-H23 lung
# [10] = tested on: OVCAR-4 ovarian
# [11] = tested on: OVCAR-8 ovarian
# [12] = tested on: PC-3 prostate
# [13] = tested on: RPMI-8226 leukemia
# [14] = tested on: SF-295 CNS
# [15] = tested on: SK-MEL-2 melanoma
# [16] = tested on: SK-OV-3 ovarian
# [17] = tested on: TK-10 renal
# [18] = tested on: ACHN renal
# [19] = tested on: COLO 205 colon
# [20] = tested on: DU-145 prostate
# [21] = tested on: EKVX NSCLC
# [22] = tested on: HCC-2998 colon
# [23] = tested on: HCT-116 colon
# [24] = tested on: HCT-15 colon
# [25] = tested on: HOP-62 NSCLC
# [26] = tested on: HT29 colon
# [27] = tested on: KM12 colon
# [28] = tested on: MALME-3M melanoma
# [29] = tested on: MCF7 breast
# [30] = tested on: NCI-H226 lung
# [31] = tested on: NCI-H460 lung
# [32] = tested on: NCI-H522 lung
# [33] = tested on: NCI/ADR-RES ovarian
# [34] = tested on: OVCAR-3 ovarian
# [35] = tested on: RXF 393 renal
# [36] = tested on: SF-268 CNS
# [37] = tested on: SK-MEL-5 melanoma
# [38] = tested on: SNB-19 CNS
# [39] = tested on: SNB-75 CNS
# [40] = tested on: SR leukemia
# [41] = tested on: U251 CNS
# [42] = tested on: UACC-62 melanoma
# [43] = tested on: UO-31 renal
structure (smiles),measurement,setting,value
CCN(CC)c1ccc2nc3ccc(N=Nc4ccc(N(C)C)cc4)cc3[n+](-c3ccccc3)c2c1,GI50,[1],247 nM
same,TGI,[1],2390 nM
same,GI50,[2],424 nM
same,TGI,[2],2570 nM
same,GI50,[3],146 nM
same,TGI,[3],434 nM
same,GI50,[4],73.9 nM
same,TGI,[4],890 nM
same,GI50,[5],170 nM
same,TGI,[5],811 nM
same,GI50,[6],448 nM
same,TGI,[6],> 100000 nM
same,GI50,[7],93.4 nM
same,TGI,[7],1530 nM
same,GI50,[8],83.1 nM
same,TGI,[8],426 nM
same,GI50,[9],80.9 nM
same,TGI,[9],1370 nM
same,GI50,[10],24.3 nM
same,TGI,[10],92.9 nM
same,GI50,[11],110 nM
same,TGI,[11],1480 nM
same,GI50,[12],156 nM
same,TGI,[12],2560 nM
same,GI50,[13],31.4 nM
same,TGI,[13],1350 nM
same,GI50,[14],37.6 nM
same,TGI,[14],191 nM
same,GI50,[15],369 nM
same,TGI,[15],2050 nM
same,GI50,[16],390 nM
same,TGI,[16],13700 nM
same,GI50,[17],389 nM
same,TGI,[17],2100 nM
CCCCCC(=O)N[C@@H](c1ccco1)[C@@H](O)C(=O)O[C@H]1C[C@@]2(O)[C@@H](OC(=O)c3ccccc3)[C@@H]3[C@]4(OC(C)=O)CO[C@@H]4C[C@H](O)[C@@]3(C)C(=O)[C@H](OC(C)=O)C(=C1C)C2(C)C,TGI,[18],> 25000 nM
same,GI50,[2],1.09 nM
same,GI50,[3],329 nM
same,TGI,[19],0.15 nM
same,TGI,[20],10.1 nM
same,TGI,[21],> 25000 nM
same,TGI,[22],> 25000 nM
same,TGI,[23],> 25000 nM
same,GI50,[24],39.6 nM
same,TGI,[24],> 25000 nM
same,TGI,[25],> 25000 nM
same,TGI,[5],> 25000 nM
same,TGI,[6],30.9 nM and 25 nM
same,TGI,[26],> 25000 nM
same,GI50,[7],1.29 nM
same,TGI,[27],> 25000 nM
same,GI50,[28],0.357 nM
same,TGI,[29],> 25000 nM
same,GI50,[8],2.11 nM
same,GI50,[30],1.33 nM
same,GI50,[9],0.239 nM
same,TGI,[9],> 25000 nM
same,TGI,[31],> 25000 nM
same,TGI,[32],2.28 nM
same,GI50,[33],617 nM
same,TGI,[33],> 25000 nM
same,TGI,[34],0.716 nM
same,TGI,[10],> 25000 nM
same,TGI,[11],> 25000 nM
same,TGI,[13],8080 nM
same,GI50,[35],0.206 nM
same,GI50,[36],16.1 nM
same,TGI,[36],> 25000 nM
same,GI50,[14],0.9 nM
same,TGI,[14],28.4 nM
same,TGI,[37],4520 nM
same,GI50,[16],1.63 nM
same,TGI,[16],> 25000 nM
same,GI50,[38],0.55 nM
same,TGI,[38],> 25000 nM
same,GI50,[39],2.26 nM
same,TGI,[40],> 25000 nM
same,GI50,[17],27.5 nM
same,TGI,[17],18200 nM
same,TGI,[41],> 25000 nM
same,GI50,[42],4.01 nM
same,GI50,[43],187 nM
same,TGI,[43],> 25000 nM

# From PubChem BioAssay (NCI)
